Earlier results on five compounds are cited in article PMC2409936, “Phase I and pharmacokinetic study of XR11576, an oral topoisomerase I and II inhibitor, administered on days 1–5 of a 3-weekly cycle in patients with advanced solid tumours” (British Journal of Cancer, 2004).

The first series has as its system patients. Conditions: oral administration; ref Soepenberg et al, 2002; Natelson et al, 1996; Verschraegen et al, 1998; Creemers et al, 1997; Gerrits et al; Mani et al; De Jonge et al, 1999; cited from earlier work.
Turning to `CCc1c2c(nc3ccc(OC(=O)N4CCC(N5CCCCC5)CC4)cc13)-c1cc3c(c(=O)n1C2)COC(=O)[C@]3(O)CC` [irinotecan], the “diarrhoea, share of administered cycles” value was 24–54%.

On to `CC[C@@]1(O)C(=O)OCc2c1cc1n(c2=O)Cc2cc3c([N+](=O)[O-])cccc3nc2-1` [9-nitrocamptothecin], for which the “diarrhoea, share of administered cycles” value is 24–54%.

In the case of `CC[C@@]1(O)C(=O)OCc2c1cc1n(c2=O)Cc2cc3ccccc3nc2-1` [20-S-camptothecin], the “diarrhoea, share of administered cycles” value is 24–54%.

As to `CC[C@@]1(O)C(=O)OCc2c1cc1n(c2=O)Cc2cc3c(CN(C)C)c(O)ccc3nc2-1` [topotecan], the “diarrhoea, share of administered cycles” value was 24–54%.

Turning to `CC[C@@]1(O)C(=O)OCc2c1cc1n(c2=O)Cc2cc3c(N)cccc3nc2-1` [9-AC], the “diarrhoea, share of administered cycles” value is 24–54%.

Staying with this series, now noted: prolonged oral administration (21 days), not controlled with loperamide; ref Creemers et al, 1997; cited from earlier work.
Regarding `CC[C@@]1(O)C(=O)OCc2c1cc1n(c2=O)Cc2cc3c(CN(C)C)c(O)ccc3nc2-1` [topotecan], the severe diarrhoea is 22%.
